Measured values from ChEMBL document CHEMBL1158636, “Discovery of a novel sulfonamide-pyrazolopiperidine series as potent and efficacious gamma-secretase inhibitors (Part II)” (Bioorg Med Chem Lett, 2010).

Columns and labels:
[1] = target: Gamma-secretase (Homo sapiens) (UniProt Q96BI3+Q9NZ42+Q8WW43+P49768+Q92542+P49810); test: Inhibition of gamma-secretase-mediated APP cleavage in human SNC cells by ELISA; type: cell-based
[2] = Oxidative metabolic stability in human liver microsomes assessed as compound remaining at 2 uM after 30 mins in presence of 1 mM UDPGA; type: ADME, Microsome; details: liver microsomes, read-out: Stability
[3] = Inhibition of gamma-secretase-mediated notch cleavage after 2 hrs by ELISA
[4] = Oxidative metabolic stability in human liver microsomes assessed as compound remaining at 1 uM after 30 mins in presence of 1 mM NADPH; type: ADME, Microsome; details: liver microsomes, read-out: Stability
Gamma-secretase = test: Inhibition of gamma-secretase-mediated notch cleavage in human SNC cells by ELISA; type: cell-based
[5] = Inhibition of gamma-secretase-mediated APP cleavage assessed as amyloid beta40 level after 2 hrs by ELISA

SMILES | ED50 [1] [nM] | remaining at 0.5 h, 2 µM [2] [%] | IC50 [3] [nM] | remaining at 0.5 h, 1 µM [4] [%] | IC50 (Gamma-secretase) [nM] | IC50 [5] [nM]
CC1C(=O)c2[nH]ncc2C(C2CC2)N1S(=O)(=O)c1ccc(C(F)(F)F)cc1 (configuration not stated) | 2340 | 67 | 12 | 62 | > 40000 | 0.5
O=C1CN(S(=O)(=O)c2ccc(C(F)(F)F)cc2)C(C(F)(F)F)c2cn[nH]c21 (configuration not stated) | > 10000 | 6 | 51 | 1 | > 40000 | 2.6
CC1C(=O)c2[nH]ncc2C(C)N1S(=O)(=O)c1ccc(C(F)(F)F)cc1 (configuration not stated) | 5110 | 77 | 89 | 63 | > 40000 | 6.8
CCC1c2cn[nH]c2C(=O)CN1S(=O)(=O)c1ccc(C(F)(F)F)cc1 (configuration not stated) | > 10000 |  |  | 19 | > 40000 | 6.5
O=C1CN(S(=O)(=O)c2ccc(C(F)(F)F)cc2)[C@H](C2CC2)c2cn[nH]c21 | > 10000 |  | 354 |  | > 40000 | 9.1
O=S(=O)(c1ccc(C(F)(F)F)cc1)N1C(C2CC2)c2cn[nH]c2C(F)(F)C1C1CC1 (configuration not stated) | 6 | 64 | 42 | 76 | 771 | 1.5
CC(C)[C@@H]1c2cn[nH]c2C(=O)CN1S(=O)(=O)c1ccc(Cl)cc1 | 4000 | 71 | 91 | 12 | > 40000 | 3.7
O=C1c2[nH]ncc2C(C2CC2)N(S(=O)(=O)c2ccc(C(F)(F)F)nc2)C1C1CCOCC1 (racemic) | 1 | 64 | 19 | 57 | 187 | 1
CC(C)C1c2cn[nH]c2C(F)(F)CN1S(=O)(=O)c1ccc(Cl)cc1 (racemic) | 11 | 42 | 12 | 2 | 574 | 0.7
O=C1c2[nH]ncc2C(C2CC2)N(S(=O)(=O)c2ccc(C(F)(F)F)cc2)C12CCCC2 (racemic) | 2 |  | 8 | 3 | 235 | 0.4
O=C1CN(S(=O)(=O)c2ccc(C(F)(F)F)nc2)C(C2CC2)c2cn[nH]c21 (racemic) | 6000 | 42 | 193 | 5 | > 40000 | 5.6
O=C1c2[nH]ncc2C(C2CC2)N(S(=O)(=O)c2ccc(C(F)(F)F)cc2)C1C1CC1 (racemic) | 21 | 76 | 21 | 67 | 2790 | 0.4
O=C1c2[nH]ncc2C(C2CC2)N(S(=O)(=O)c2ccc(C(F)(F)F)nc2)C1c1cc(F)cc(F)c1 (racemic) | > 1000 |  | 17 | 9 | 4000 | 0.7
O=S(=O)(c1ccc(C(F)(F)F)cc1)N1CC(F)(F)c2[nH]ncc2C1C(F)(F)F (racemic) | 4 | 35 | 10 | 84 | 403 | 0.9
CC1(C)C(=O)c2[nH]ncc2C(C2CC2)N1S(=O)(=O)c1ccc(C(F)(F)F)cc1 (racemic) | 60 | 67 | 268 | 68 | 2660 | 7.3
O=C1c2[nH]ncc2C(C2CC2)N(S(=O)(=O)c2ccc(C(F)(F)F)cc2)C12CC2 (racemic) | 11 | 84 | 69 | 85 | 995 | 1.9
O=C1c2[nH]ncc2C(C2CC2)N(S(=O)(=O)c2ccc(Cl)s2)C12CC2 (racemic) | 7 |  | 18 | 1 | 576 | 2
O=C1c2[nH]ncc2C(C2CC2)N(S(=O)(=O)c2ccc(C(F)(F)F)cn2)C12CC2 (racemic) | 87 |  |  |  |  | 
O=C1c2[nH]ncc2C(C2CC2)N(S(=O)(=O)c2ccc(C(F)(F)F)nc2)C12CC2 (racemic) | 7 |  |  |  |  | 
O=S(=O)(c1ccc(C(F)(F)F)nc1)N1C(C2CC2)c2cn[nH]c2C(F)(F)C12CC2 (racemic) | 0.5 |  |  |  |  | 

SMILES | ED50 [1] [nM] | remaining at 0.5 h, 2 µM [2] [%] | IC50 [3] [nM] | remaining at 0.5 h, 1 µM [4] [%] | IC50 (Gamma-secretase) [nM] | IC50 [5] [nM]
O=C1c2[nH]ncc2C(C2CC2)N(S(=O)(=O)c2ccc(C(F)(F)F)nc2)C12CC2 (racemic) [4'-CYCLO PROPYL-5'-(6-(TRIFLUORO METHYL)PYRIDIN-3-YL SULFONYL)-4',5'-DIHYDROSPIRO[CYCLOPROPANE-1,6'-PYRAZOLO[4,3-C]PYRIDIN]-7'(1'H)-ONE (ENANTIOMERIC MIX)] |  | 91 | 35 | 86 | 688 | 1.8
O=C1c2[nH]ncc2C(C2CC2)N(S(=O)(=O)c2ccc(C(F)(F)F)cn2)C12CC2 (racemic) [4'-CYCLOPROPYL-5'-(5-(TRIFLUORO METHYL)PYRIDIN-2-YL SULFONYL)-4',5'-DIHYDROSPIRO[CYCLOPROPANE-1,6'-PYRAZOLO[4,3-C]PYRIDIN]-7'(1'H)-ONE (ENANTIOMERIC MIX)] |  | 89 | 502 | 76 | 6210 | 24
O=C1c2[nH]ncc2[C@@H](C2CC2)N(S(=O)(=O)c2ccc(C(F)(F)F)nc2)[C@H]1C1CC1 (relative stereo) | 130 | 75 | 10 | 77 | 6700 | 0.3
CC(C)[C@H]1C(=O)c2[nH]ncc2[C@@H](C(C)C)N1S(=O)(=O)c1ccc(C(F)(F)F)cc1 (relative stereo) | 33 | 82 | 14 | 0 | 2300 | 0.5
COC[C@H]1C(=O)c2[nH]ncc2[C@@H](C2CC2)N1S(=O)(=O)c1ccc(C(F)(F)F)cc1 (relative stereo) | > 10000 |  | 126 | 14 | > 40000 | 3.2
C[C@H]1C(=O)c2[nH]ncc2[C@@H](C2CC2)N1S(=O)(=O)c1ccc(C(F)(F)F)nc1 (relative stereo) | > 10000 | 59 | 21 | 72 | > 40000 | 0.6
CC[C@@H]1c2cn[nH]c2C(=O)[C@H](CC)N1S(=O)(=O)c1ccc(C(F)(F)F)nc1 (relative stereo) | 21 | 83 | 36 | 57 | 2360 | 0.8
O=C1c2[nH]ncc2[C@@H](C2CC2)N(S(=O)(=O)c2ccc(C(F)(F)F)nc2)[C@@H]1C1CC1 (relative stereo) | 374 | 87 | 66 | 21 | 25100 | 3
C[C@@H]1N(S(=O)(=O)c2ccc(C(F)(F)F)cc2)[C@H](C2CC2)c2cn[nH]c2C1(F)F (relative stereo) | 7 | 46 | 18 | 75 | 418 | 1
C[C@@H]1C(=O)c2[nH]ncc2[C@H](C)N1S(=O)(=O)c1ccc(C(F)(F)F)nc1 (stereo in doubt) | > 10000 |  | 2270 | 62 | > 40000 | 91
CC[C@@H]1C(=O)c2[nH]ncc2[C@H](CC)N1S(=O)(=O)c1ccc(Cl)cc1 (stereo in doubt) | 6 | 77 |  | 6 | 546 | 0.3
CC(C)(C)C1C(=O)c2[nH]ncc2C(C2CC2)N1S(=O)(=O)c1ccc(C(F)(F)F)nc1 (stereo in doubt; 3t) | 0.6 |  |  |  |  | 
CC(C)(C)C1C(=O)c2[nH]ncc2C(C2CC2)N1S(=O)(=O)c1ccc(C(F)(F)F)nc1 (stereo in doubt; 3t) [6-TERT-BUTYL-4-CYCLOPROPYL-5-(6-(TRIFLUOROMETHYL)PYRIDIN-3-YLSULFONYL)-5,6-DIHYDRO-1H-PYRAZOLO[4,3-C]PYRIDIN-7(4H)-ONE (STRUCTURAL MIX)] |  | 66 | 6 | 8 | 71 | 0.2
CC(C)(C)C1C(=O)c2[nH]ncc2C(C2CC2)N1S(=O)(=O)c1ccc(C(F)(F)F)nc1 (stereo in doubt; 3u) | 16 |  |  |  |  | 
O=C1c2[nH]ncc2C(C2CC2)N(S(=O)(=O)c2ccc(C(F)(F)F)nc2)C12CC2 (stereo in doubt; 16e) | 2680 |  |  |  |  | 
O=C1c2[nH]ncc2C(C2CC2)N(S(=O)(=O)c2ccc(C(F)(F)F)nc2)C12CC2 (stereo in doubt; 16f) | 4 |  |  |  |  | 
O=C1c2[nH]ncc2C(C2CC2)N(S(=O)(=O)c2ccc(C(F)(F)F)cn2)C12CC2 (stereo in doubt; 16h) | 1850 |  |  |  |  | 
O=C1c2[nH]ncc2C(C2CC2)N(S(=O)(=O)c2ccc(C(F)(F)F)cn2)C12CC2 (stereo in doubt; 16i) | 26 |  |  |  |  | 
O=S(=O)(c1ccc(C(F)(F)F)nc1)N1C(C2CC2)c2cn[nH]c2C(F)(F)C12CC2 (stereo in doubt; 17b) | 0.3 |  |  |  |  | 
O=S(=O)(c1ccc(C(F)(F)F)nc1)N1C(C2CC2)c2cn[nH]c2C(F)(F)C12CC2 (stereo in doubt; 17c) | 86 |  |  |  |  | 
